The term CC50 denotes the concentration at which the toxic effect on the cells reaches its halfway point. Lower therefore signals harm at low concentration. One may read the IC50 as the point on the concentration scale where inhibition reaches its midpoint. For orientation: EC50 means the concentration that produces a half-maximal response. The low end stands for an effect from little substance, the high end for a need for much substance.

The nature of series [1]: Toxicity in human SW1353 cells. The format is cell-based.
The target of series [2] is Serine/threonine-protein kinase 3 (Homo sapiens, UniProt Q13188). As to the kind of experiment: Inhibition of MST2 (unknown origin).
The target of series [3] is Serine/threonine-protein kinase Nek2 (Homo sapiens, UniProt P51955). As to the kind of experiment: Inhibition of NEK2 (unknown origin).
Sequence of Serine/threonine-protein kinase Nek2 (P51955 whole entry): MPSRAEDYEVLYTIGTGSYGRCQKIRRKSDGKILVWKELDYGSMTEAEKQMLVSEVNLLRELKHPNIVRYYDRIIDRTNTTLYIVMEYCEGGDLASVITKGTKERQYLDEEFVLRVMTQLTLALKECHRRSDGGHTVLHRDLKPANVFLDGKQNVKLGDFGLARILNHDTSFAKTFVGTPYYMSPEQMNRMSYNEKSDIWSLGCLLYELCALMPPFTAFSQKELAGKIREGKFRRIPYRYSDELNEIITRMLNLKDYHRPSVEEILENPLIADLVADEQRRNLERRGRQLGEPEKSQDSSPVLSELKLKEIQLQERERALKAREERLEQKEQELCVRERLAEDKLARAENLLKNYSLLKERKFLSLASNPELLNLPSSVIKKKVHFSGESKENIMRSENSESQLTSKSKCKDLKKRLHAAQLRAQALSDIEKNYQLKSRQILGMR
Series [4] concerns the target Mitogen-activated protein kinase 1 (Homo sapiens, UniProt P28482). As to the kind of experiment: Inhibition of ERK2 (unknown origin).
Series [5] addresses Hepatocyte growth factor receptor (Homo sapiens, UniProt P08581). The series is described as follows: Inhibition of MET (unknown origin).
For series [6], the target named is Protein kinase C alpha type (Homo sapiens, UniProt P17252). As to the kind of experiment: Inhibition of PKCA (unknown origin).
Series [7] has as its target Serine/threonine-protein kinase PLK3 (Homo sapiens, UniProt Q9H4B4). As to the kind of experiment: Inhibition of PLK3 (unknown origin).
Series [8] deals with Rho-associated protein kinase 2 (Homo sapiens, UniProt O75116). The series is described as follows: Inhibition of ROCK2 (unknown origin).
In series [9] the target is Insulin-like growth factor 1 receptor (Homo sapiens, UniProt P08069). As to the kind of experiment: Inhibition of IGF1R (unknown origin).
Sequence of Insulin-like growth factor 1 receptor (P08069 31-736 limits assumed): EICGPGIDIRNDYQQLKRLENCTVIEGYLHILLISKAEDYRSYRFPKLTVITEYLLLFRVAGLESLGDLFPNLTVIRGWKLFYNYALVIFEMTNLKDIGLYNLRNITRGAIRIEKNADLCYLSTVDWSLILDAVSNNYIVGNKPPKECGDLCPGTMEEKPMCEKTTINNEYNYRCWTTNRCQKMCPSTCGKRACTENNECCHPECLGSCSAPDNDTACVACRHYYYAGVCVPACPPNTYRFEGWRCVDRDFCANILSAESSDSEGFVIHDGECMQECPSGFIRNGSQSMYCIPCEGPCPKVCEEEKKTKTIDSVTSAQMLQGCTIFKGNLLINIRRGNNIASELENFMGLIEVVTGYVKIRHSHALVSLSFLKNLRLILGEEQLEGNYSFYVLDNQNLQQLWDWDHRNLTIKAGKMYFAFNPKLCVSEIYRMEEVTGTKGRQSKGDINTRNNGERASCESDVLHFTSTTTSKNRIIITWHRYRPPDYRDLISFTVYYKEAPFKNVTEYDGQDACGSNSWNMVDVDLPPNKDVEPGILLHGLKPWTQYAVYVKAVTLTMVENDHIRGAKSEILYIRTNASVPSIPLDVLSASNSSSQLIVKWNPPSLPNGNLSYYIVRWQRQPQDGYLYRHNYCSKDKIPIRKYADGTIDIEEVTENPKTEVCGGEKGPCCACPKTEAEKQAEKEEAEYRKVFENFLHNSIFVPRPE
Sequence of Insulin-like growth factor 1 receptor (P08069 741-1367 limits assumed): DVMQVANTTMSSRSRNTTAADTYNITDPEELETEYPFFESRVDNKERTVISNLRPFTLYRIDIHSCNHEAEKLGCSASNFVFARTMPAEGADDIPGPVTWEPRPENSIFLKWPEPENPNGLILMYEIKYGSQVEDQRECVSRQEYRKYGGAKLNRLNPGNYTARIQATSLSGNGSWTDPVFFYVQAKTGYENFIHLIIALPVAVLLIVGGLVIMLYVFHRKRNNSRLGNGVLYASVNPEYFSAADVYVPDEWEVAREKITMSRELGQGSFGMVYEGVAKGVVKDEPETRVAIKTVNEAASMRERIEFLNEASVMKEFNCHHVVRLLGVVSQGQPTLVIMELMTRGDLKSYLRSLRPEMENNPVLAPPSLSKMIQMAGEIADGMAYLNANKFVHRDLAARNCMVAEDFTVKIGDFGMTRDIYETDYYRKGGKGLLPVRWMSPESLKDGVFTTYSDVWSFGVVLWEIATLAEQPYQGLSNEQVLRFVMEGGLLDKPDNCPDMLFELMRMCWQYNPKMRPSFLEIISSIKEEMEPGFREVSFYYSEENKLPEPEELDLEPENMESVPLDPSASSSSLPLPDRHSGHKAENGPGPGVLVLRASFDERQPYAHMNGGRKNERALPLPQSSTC
Series [10] deals with Serine/threonine-protein kinase Chk1 (Homo sapiens, UniProt O14757). As to the kind of experiment: Inhibition of CHK1 (unknown origin).
The target in series [11] is RAC-alpha serine/threonine-protein kinase (Homo sapiens, UniProt P31749). As to the kind of experiment: Inhibition of AKT1 (unknown origin).
Sequence of RAC-alpha serine/threonine-protein kinase (P31749 whole entry): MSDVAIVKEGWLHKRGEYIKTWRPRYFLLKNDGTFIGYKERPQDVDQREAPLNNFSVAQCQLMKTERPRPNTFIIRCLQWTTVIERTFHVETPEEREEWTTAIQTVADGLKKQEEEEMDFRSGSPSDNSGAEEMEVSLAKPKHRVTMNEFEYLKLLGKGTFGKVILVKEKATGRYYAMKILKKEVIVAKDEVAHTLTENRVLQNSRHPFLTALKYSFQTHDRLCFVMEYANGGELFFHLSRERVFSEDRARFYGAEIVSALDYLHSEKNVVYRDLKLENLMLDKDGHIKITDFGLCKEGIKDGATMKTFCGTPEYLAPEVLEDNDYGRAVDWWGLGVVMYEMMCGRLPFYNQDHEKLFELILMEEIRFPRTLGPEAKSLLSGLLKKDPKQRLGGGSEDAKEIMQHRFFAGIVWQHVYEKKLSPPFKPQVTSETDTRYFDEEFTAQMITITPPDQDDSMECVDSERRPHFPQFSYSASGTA
Series [12] deals with Epidermal growth factor receptor (Homo sapiens, UniProt P00533). The series is described as follows: Inhibition of EGFR (unknown origin).
Sequence of Epidermal growth factor receptor (P00533 whole entry): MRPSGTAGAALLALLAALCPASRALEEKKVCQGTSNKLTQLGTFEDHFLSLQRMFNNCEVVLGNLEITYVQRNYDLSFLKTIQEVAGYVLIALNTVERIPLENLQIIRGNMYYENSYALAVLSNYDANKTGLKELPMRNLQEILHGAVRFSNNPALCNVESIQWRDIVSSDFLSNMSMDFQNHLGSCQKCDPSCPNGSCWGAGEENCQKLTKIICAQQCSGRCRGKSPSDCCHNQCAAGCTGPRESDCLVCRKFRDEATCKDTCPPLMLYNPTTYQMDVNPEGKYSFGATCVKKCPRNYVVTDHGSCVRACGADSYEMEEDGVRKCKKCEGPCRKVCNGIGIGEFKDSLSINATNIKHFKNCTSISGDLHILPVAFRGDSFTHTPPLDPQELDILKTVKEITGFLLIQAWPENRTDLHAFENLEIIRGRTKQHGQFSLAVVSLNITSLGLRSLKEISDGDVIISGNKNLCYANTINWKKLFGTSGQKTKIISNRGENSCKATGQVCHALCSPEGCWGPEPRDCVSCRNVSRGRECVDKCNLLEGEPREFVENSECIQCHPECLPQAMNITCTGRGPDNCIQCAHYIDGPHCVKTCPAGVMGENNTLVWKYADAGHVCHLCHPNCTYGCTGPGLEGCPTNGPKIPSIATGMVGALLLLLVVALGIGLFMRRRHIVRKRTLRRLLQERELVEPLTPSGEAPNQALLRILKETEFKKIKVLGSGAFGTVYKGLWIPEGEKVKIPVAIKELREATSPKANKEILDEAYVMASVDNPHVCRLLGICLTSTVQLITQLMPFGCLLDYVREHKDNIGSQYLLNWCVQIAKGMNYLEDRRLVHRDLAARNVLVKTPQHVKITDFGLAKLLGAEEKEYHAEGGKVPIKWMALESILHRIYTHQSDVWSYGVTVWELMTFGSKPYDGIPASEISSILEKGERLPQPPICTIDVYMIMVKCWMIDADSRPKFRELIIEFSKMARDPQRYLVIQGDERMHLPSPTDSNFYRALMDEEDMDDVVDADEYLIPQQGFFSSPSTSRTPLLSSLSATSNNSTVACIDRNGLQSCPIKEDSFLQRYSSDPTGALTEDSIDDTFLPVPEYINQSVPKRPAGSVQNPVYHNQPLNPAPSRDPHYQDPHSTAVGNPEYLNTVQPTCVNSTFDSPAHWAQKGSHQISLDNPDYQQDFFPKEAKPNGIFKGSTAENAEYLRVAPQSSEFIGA
The target of another series is Ephrin type-B receptor 4 (Homo sapiens, UniProt P54760). As to the kind of experiment: Inhibition of EPHB4 (unknown origin).
Series [13] addresses Inhibitor of nuclear factor kappa-B kinase subunit beta (Homo sapiens, UniProt O14920). As to the kind of experiment: Inhibition of IKKB (unknown origin).
Series [14] addresses Tyrosine-protein kinase Lck (Homo sapiens, UniProt P06239). The series is described as follows: Inhibition of LCK (unknown origin).
Series [15] has as its target MAP kinase-activated protein kinase 2 (Homo sapiens, UniProt P49137).
Description: Inhibition of MK2 (unknown origin) phosphorylation using TAMRA labeled peptide as substrate incubated 30 mins before substrate addition measured after 30 mins
The target of series [16] is Glycogen synthase kinase-3 beta (Homo sapiens, UniProt P49841). The series is described as follows: Inhibition of GSK3B (unknown origin).
Series [17] addresses Calcium/calmodulin-dependent protein kinase type IV (Homo sapiens, UniProt Q16566). As to the kind of experiment: Inhibition of CAMK4 (unknown origin).
For series [18], the target named is Casein kinase I isoform delta (Homo sapiens, UniProt P48730). The series is described as follows: Inhibition of CSNK1D (unknown origin).
The target in series [19] is Receptor-type tyrosine-protein kinase FLT3 (Homo sapiens, UniProt P36888). The series is described as follows: Inhibition of FLT3 (unknown origin).
Series [20] addresses Testis-specific serine/threonine-protein kinase 2 (Homo sapiens, UniProt Q96PF2). As to the kind of experiment: Inhibition of TSSK2 (unknown origin).
Series [21] concerns the target Interleukin-1 receptor-associated kinase 4 (Homo sapiens, UniProt Q9NWZ3). The series is described as follows: Inhibition of IRAK4 (unknown origin).
Series [22] addresses Tyrosine-protein kinase JAK2 (Homo sapiens, UniProt O60674). As to the kind of experiment: Inhibition of JAK2 (unknown origin).
The test system of a further series is THP-1. As to the kind of experiment: cells. The following applies: Homo sapiens.

Molecules are shown by their SMILES.

Sequence of Interleukin-1 receptor-associated kinase 4 (Q9NWZ3 whole entry): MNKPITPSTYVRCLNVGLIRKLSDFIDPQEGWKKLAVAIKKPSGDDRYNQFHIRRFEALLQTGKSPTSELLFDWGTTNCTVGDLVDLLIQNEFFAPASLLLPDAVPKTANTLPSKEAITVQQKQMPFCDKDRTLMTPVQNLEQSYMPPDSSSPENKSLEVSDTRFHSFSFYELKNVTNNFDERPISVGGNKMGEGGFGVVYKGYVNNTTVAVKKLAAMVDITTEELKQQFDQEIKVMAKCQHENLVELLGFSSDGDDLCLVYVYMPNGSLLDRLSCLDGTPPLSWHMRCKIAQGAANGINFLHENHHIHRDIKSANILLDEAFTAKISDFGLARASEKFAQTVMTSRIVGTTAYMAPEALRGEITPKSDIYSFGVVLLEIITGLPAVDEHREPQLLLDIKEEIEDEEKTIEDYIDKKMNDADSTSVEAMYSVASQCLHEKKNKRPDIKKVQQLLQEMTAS
Sequence of MAP kinase-activated protein kinase 2 (P49137 whole entry): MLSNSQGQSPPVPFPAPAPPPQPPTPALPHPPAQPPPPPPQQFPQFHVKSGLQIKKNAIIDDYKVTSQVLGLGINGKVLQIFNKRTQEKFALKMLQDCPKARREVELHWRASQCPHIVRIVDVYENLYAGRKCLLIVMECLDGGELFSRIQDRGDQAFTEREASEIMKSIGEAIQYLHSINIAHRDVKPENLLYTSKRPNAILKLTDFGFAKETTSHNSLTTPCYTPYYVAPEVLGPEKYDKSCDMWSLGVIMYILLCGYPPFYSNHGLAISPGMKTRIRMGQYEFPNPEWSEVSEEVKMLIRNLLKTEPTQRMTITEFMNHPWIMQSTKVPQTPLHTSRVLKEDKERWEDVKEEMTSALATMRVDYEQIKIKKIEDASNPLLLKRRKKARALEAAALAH
Description for THP-1: Antiinflammatory activity in human THP1 cells assessed as inhibition of LPS-induced TNFalpha production treated 30 mins before LPS addition measured after 3 hrs by ELISA

The compound `O=C1c2oc(-c3ccc(Cl)cc3)cc2Cc2cc(N3CCNCC3)ccc2N1Cc1ccccn1` came in with a CC50 in series [1] of 17.4 µM.

Consider `O=C1c2oc(-c3ccc(Cl)cc3)cc2Cc2cc(N3CCNCC3)ccc2N1Cc1ccccc1-c1cccnc1`, for which the concentration for half-maximal inhibition (IC50) is above 12 µM in [2]; 13 µM in [3]; above 30 µM in series [4]; above 30 µM in [5]; 10 µM in series [6]; above 30 µM in series [7]. Further, the concentration for half-maximal inhibition (IC50) was above 20 µM in series [8]; above 30 µM in series [9]; above 18 µM in series [10]; 16 µM in [11]; above 30 µM in series [12]; above 30 µM against Ephrin type-B receptor 4. The IC50 in series [13] is 24 µM; in series [14], above 19 µM; in [15], 0.022 µM; in series [16], above 30 µM; in [17] it was 27 µM; in [18] it was above 30 µM. For the same compound, the IC50 in series [19] is above 30 µM; in series [20], above 30 µM; in [21] it was 26 µM; in series [22], 11 µM.

Take `N#Cc1ccc(-c2cc3c(o2)C(=O)N(Cc2ccccc2-c2cncnc2)c2ccc(N4CCNCC4)cc2C3)cc1`: it took 0.15 µM to reach a half-maximal effect in the series on THP-1 (EC50).

These data come from ChEMBL document CHEMBL2384992, “Conformation constraint of anilides enabling the discovery of tricyclic lactams as potent MK2 non-ATP competitive inhibitors” (Bioorg Med Chem Lett, 2013).
